Source: patent US12497394B2, “Fused-cyclic pyrazolone formamide compound and preparation method therefor, pharmaceutical composition and use thereof” (SHANGHAI INSTITUTE OF MATERIA MEDICA, CHINESE ACADEMY OF …, priority 2018, dated 2025)
“And” between values parts separate entries of the source, which are not always exact repeats. Equal values may be shown once. Read-outs that look alike come from different tables or passages of the source.

Experiments:
[1] = system: BaF3/TEL-AXL cells; assay: Proliferation of BaF3/TEL-AXL cells; type: cell-based; details: for inhibition at 0.001 µM / inhibition at 0.01 µM / inhibition at 0.1 µM: BaF3/TEL-AXL
Source text: Experimental Example 4: Effect of the Compound on the Proliferation Effect of BaF3/TEL-AXL Cells
Based on the above-mentioned enzyme activity research results, we further explored the effect of the compound on cell proliferation mediated by receptor tyrosine kinase AXL.

[2] = biological target: T1, receptor tyrosine kinase AXL (Homo sapiens, UniProt P30530); assay: Enzyme activity of receptor tyrosine kinase AXL (ELISA); type: biochemical; details: for inhibition at 0.001 µM: 1 nM; for inhibition at 0.001 µM / inhibition at 0.01 µM / inhibition at 0.1 µM: read-out: AXL activity Inhibitory rate(%); for inhibition at 0.01 µM: 10 nM; for inhibition at 0.1 µM: 100 nM
T1 construct: 50 μL of AXL kinase domain recombinant protein diluted in reaction buffer was added to start the reaction; made in house; host or cells: insect cells (baculovirus expression system)
T1 sequence (P30530 536-807 limits assumed): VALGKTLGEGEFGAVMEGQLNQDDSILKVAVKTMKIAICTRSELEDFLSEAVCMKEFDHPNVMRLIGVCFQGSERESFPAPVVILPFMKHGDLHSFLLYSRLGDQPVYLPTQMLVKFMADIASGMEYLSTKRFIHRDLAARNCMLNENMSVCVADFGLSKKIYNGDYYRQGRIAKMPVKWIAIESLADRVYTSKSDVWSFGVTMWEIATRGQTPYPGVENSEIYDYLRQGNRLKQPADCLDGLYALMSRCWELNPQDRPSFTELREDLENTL
Description: Detection method: Enzyme-linked immunosorbent assay (ELISA)
Tested receptor tyrosine kinase: AXL
The full-wavelength microplate reader for experiment reading was a product of Molecular Device, model: SpectraMax 190; the experiment water was distilled water produced by Sinopharm Group.
Compound preparation: The compounds were centrifuged at 12,000 g for 5 min, and DMSO was added to prepare a 10^−2M stock solution, vortexed evenly and sonicated for 10 min for use, and stored at −40° C. During the test, the compound was diluted from the stock solution to 100 times the tested concentration with DMSO (the DMSO concentration in the system was 1%).
1. […] Discard the liquid from the well. The plate was washed and washed three times with T-PBS (0.1% Tween-20 in potassium-free PBS, 200 μL/well) for 5 minutes each time.
2. 49 μL of ATP solution diluted with reaction buffer (50 mM HEPES pH 7.4, 50 mM MgCl2, 0.5 mM MnCl2, 0.2 mM Na3VO4, 1 mM DTT) was added to each well, and […] of the tested compound was added to each well, and then 50 μL of AXL kinase domain recombinant protein diluted in reaction buffer was added to start the reaction. Two control wells without ATP were added in each experiment. (100 rpm) Reacted in 37° C. shaker for 1 hour. Discard the liquid from the well, and the plate was washed with T-PBS for three times.
3. […] Discard the liquid from the well, and the plate was washed with T-PBS for three times.
4. The horseradish peroxidase-labeled goat anti-mouse second antibody dilution (antibody diluted 1:2000 with BSA 5 mg/mL in T-PBS), 100 μL/well, and reacted in 37° C. shaker for 0.5 hours. Discard the liquid from the well, and the plate was washed with T-PBS for three times.
6. The reaction was quenched with 50 μL/well 2M […], and read at 490 nm using a tunable microplate reader VERSAmax.
The IC50 values were obtained by four-parameter regression analysis using the software supplied with the microplate reader.

[3] = biological target: receptor tyrosine kinase c-Met (Homo sapiens, UniProt P08581); assay: In vitro c-Met kinase inhibitory activity; type: biochemical; details: two values per compound; for inhibition at 0.01 µM / inhibition at 0.1 µM / inhibition at 0.001 µM: read-out: c-Met Inhibitory rate (%)
Source text: Experimental Example 3: Study of In Vitro c-Met Kinase Inhibitory Activity
Since the screening results of 369 kinase profiles of compound DC621044 has shown that the compound has a certain inhibitory activity on c-Met. We further screened some compounds for their inhibitory activity on c-Met kinase.

[4] = 1 nM, two values per compound, 0.001 µM
[5] = 10 nM, two values per compound, 0.01 µM
[6] = 100 nM, two values per compound, 0.1 µM
[7] = 1 nM, two values per compound, read-out: BaF3/TEL-AXL proliferation Inhibitory rate (%)
[8] = 10 nM, two values per compound, read-out: BaF3/TEL-AXL proliferation Inhibitory rate (%)
[9] = 100 nM, two values per compound, read-out: BaF3/TEL-AXL proliferation Inhibitory rate (%)

Chain of receptor tyrosine kinase c-Met (P08581 25-1390): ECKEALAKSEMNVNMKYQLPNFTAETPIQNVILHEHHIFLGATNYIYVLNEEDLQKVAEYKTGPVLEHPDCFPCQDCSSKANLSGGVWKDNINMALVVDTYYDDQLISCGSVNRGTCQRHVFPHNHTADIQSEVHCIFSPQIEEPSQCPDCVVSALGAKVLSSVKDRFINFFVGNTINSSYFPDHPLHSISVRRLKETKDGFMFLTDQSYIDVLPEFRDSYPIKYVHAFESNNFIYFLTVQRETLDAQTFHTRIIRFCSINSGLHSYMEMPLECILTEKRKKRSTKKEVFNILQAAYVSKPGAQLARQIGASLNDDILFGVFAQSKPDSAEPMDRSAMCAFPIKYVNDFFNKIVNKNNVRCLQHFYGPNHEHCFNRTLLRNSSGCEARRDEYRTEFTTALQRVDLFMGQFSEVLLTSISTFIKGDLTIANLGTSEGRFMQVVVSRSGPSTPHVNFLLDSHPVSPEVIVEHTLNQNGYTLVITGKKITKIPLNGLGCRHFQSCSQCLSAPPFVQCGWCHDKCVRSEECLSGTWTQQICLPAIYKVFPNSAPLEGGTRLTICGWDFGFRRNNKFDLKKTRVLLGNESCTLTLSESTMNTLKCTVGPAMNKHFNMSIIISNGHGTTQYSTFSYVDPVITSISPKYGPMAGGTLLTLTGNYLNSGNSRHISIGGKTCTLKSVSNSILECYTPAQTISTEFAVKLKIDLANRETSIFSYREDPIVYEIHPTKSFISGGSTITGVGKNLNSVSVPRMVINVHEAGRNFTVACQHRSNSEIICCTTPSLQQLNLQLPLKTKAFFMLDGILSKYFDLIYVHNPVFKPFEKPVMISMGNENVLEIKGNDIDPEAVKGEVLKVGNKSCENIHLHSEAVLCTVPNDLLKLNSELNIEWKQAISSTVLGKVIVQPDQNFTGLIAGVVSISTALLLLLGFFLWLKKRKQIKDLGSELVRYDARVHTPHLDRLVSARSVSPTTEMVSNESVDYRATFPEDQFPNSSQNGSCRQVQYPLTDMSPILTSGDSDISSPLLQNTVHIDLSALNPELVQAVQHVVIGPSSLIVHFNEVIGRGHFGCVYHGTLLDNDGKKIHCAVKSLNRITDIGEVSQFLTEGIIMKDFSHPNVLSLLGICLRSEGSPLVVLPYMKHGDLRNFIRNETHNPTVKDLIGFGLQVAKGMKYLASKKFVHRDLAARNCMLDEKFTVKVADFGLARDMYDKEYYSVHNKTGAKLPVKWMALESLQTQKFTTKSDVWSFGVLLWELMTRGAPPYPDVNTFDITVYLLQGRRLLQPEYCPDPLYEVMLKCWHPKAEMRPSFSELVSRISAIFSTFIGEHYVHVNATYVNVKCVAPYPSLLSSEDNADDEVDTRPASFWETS

SMILES | inhibition at 0.001 µM [2] [%] | inhibition at 0.01 µM [2] [%] | inhibition at 0.1 µM [2] [%] | c-Met Inhibitory rate (%) ([3]; 10 nM, 0.01 µM) | inhibition at 0.01 µM ([3]; 10 nM) [%] | c-Met Inhibitory rate (%) ([3]; 100 nM, 0.1 µM) | inhibition at 0.1 µM ([3]; 100 nM) [%] | c-Met Inhibitory rate (%) ([3]; 1 nM, 0.001 µM) | inhibition at 0.001 µM ([3]; 1 nM) [%] | IC50 [2] [nM] | BaF3/TEL-AXL proliferation Inhibitory rate (%) [1, 4] [%] | BaF3/TEL-AXL proliferation Inhibitory rate (%) [1, 5] [%] | BaF3/TEL-AXL proliferation Inhibitory rate (%) [1, 6] [%] | inhibition at 0.001 µM [1, 7] [%] | inhibition at 0.01 µM [1, 8] [%] | inhibition at 0.1 µM [1, 9] [%] | inhibition at 0.001 µM ([1]; concentration of 1 nM, read-out: inhibited the proliferation of BaF3/TEL-AXL cells) [%]
COCCOc1cc2ncnc(Oc3ccc(NC(=O)c4c5n(n(-c6ccc(F)cc6)c4=O)CCCC5)c(F)c3)c2cc1OCCOC [DC621060, N-(4-((6,7-bis(2-methoxyethoxy)quinazolin-4-yl)oxy)-2-fluorophenyl)-1-(4-fluorophenyl)-2-oxo-1,2,4,5,6,7-hexahydropyrazolo[1,5-a]pyridine-3-formamide] | 21.5 | 54.4 | 84.2 | 58.1% | 43.9 | 95.4 | 91.9 |  |  |  | 66.3 | 73.4 | 85.3 | 64.5 | 71 | 85.4 | 
O=C(Nc1ccc(Oc2ncnc3cc4c(cc23)OCCOCCOCCO4)c(Cl)c1)c1c2n(n(-c3ccccc3)c1=O)CCCC2 [DC621062, N-(3-chloro-4-((7,8,10,11,13,14-hexahydro-[1,4,7,10]tetraoxacyclododecane [2,3-g]quinazolin-4-yl)oxy)phenyl)-2-oxo-1-phenyl-1,2,4,5,6,7-hexahydropyrazolo[1,5-a]pyridine-3-formamide] | 6.3 | 43 | 70.6 | 78.1% and 98.9% |  | 100 | 99.8 | 35.9% and 68.6% |  |  |  |  |  |  |  |  | 
COCCOc1cc2ncnc(Oc3ccc(NC(=O)c4c5n(n(-c6cc(F)ccc6F)c4=O)CCCC5)cc3Cl)c2cc1OCCOC [DC621080, 1-(2,5-difluorophenyl)-N-(4-((6,7-bis(2-methoxyethoxy)quinazolin-4-yl)oxy)-3-chlorophenyl)-2-oxo-1,2,4,5,6,7-hexahydropyrazolo[1,5-a]pyridine-3-formamide] | 35.5 | 76.4 | 100 | 58.3% | 68.8 | 93.5 | 97.1 |  |  |  |  |  |  |  |  |  | 
O=C(Nc1ccc(Oc2ncnc3cc4c(cc23)OCCOCCOCCO4)c(F)c1)c1c2n(n(-c3ccc(F)cc3)c1=O)CCCC2 [DC621067, N-(3-fluoro-4-((7,8,10,11,13,14-hexahydro-[1,4,7,10]tetraoxacyclododecane [2,3-g]quinazolin-4-yl)oxy)phenyl)-1-(4-fluorophenyl)-2-oxo-1,2,4,5,6,7-hexahydropyrazolo[1,5-a]pyridine-3-formamide] | 8.6 | 54.5 | 89 |  |  |  |  |  |  |  | 74.8 | 85.4 | 83.0 | 80.6 | 87.2 | 80.8 | 
O=C(Nc1ccc(Oc2ncnc3cc4c(cc23)OCCOCCOCCO4)c(F)c1)c1c2n(n(-c3ccccc3)c1=O)CCCC2 [DC621061, N-(3-fluoro-4-((7,8,10,11,13,14-hexahydro-[1,4,7,10]tetraoxacyclododecane [2,3-g]quinazolin-4-yl)oxy)phenyl)-2-oxo-1-phenyl-1,2,4,5,6,7-hexahydropyrazolo[1,5-a]pyridine-3-formamide] | 22.9 | 66.7 | 91.8 | 62.4% | 51.1 | 95.7 | 94.7 | 35.7% and 61.1% |  |  |  |  |  |  |  |  | 
O=C(Nc1ccc(Oc2ncnc3cc4c(cc23)OCCOCCOCCO4)c(Cl)c1)c1c2n(n(-c3ccc(F)cc3)c1=O)CCCC2 [DC621068, N-(3-chloro-4-((7,8,10,11,13,14-hexahydro-[1,4,7,10]tetraoxacyclododecane[2,3-g]quinazolin-4-yl)oxy)phenyl)-1-(4-fluorophenyl)-2-oxo-1,2,4,5,6,7-hexahydropyrazolo[1,5-a]pyridine-3-formamide] | 16.5 | 55.1 | 85.8 | 85.9% | 71.2 |  | 100 | 46.0% | 34 |  |  |  |  |  |  |  | 
COCCOc1cc2ncnc(Oc3ccc(NC(=O)c4c5n(n(-c6ccc(F)cc6)c4=O)CCCC5)cc3Cl)c2cc1OCCOC [DC621100, N-(4-((6,7-bis(2-methoxyethoxy)quinazolin-4-yl)oxy)-3-chlorophenyl)-1-(4-fluorophenyl)-2-oxo-1,2,4,5,6,7-hexahydropyrazolo[1,5-a]pyridine-3-formamide] | 18.9 | 59.2 | 93 | 63.7% and 38.0% |  | 89.1 | 94.4 |  |  |  |  |  |  |  |  |  | 

Now from value to compound, other results behind:

inhibition at 0.001 µM [2] [%] | inhibition at 0.01 µM [2] [%] | inhibition at 0.1 µM [2] [%] | c-Met Inhibitory rate (%) ([3]; 10 nM, 0.01 µM) | inhibition at 0.01 µM ([3]; 10 nM) [%] | c-Met Inhibitory rate (%) ([3]; 100 nM, 0.1 µM) | inhibition at 0.1 µM ([3]; 100 nM) [%] | c-Met Inhibitory rate (%) ([3]; 1 nM, 0.001 µM) | inhibition at 0.001 µM ([3]; 1 nM) [%] | IC50 [2] [nM] | SMILES | BaF3/TEL-AXL proliferation Inhibitory rate (%) [1, 4] [%] | BaF3/TEL-AXL proliferation Inhibitory rate (%) [1, 5] [%] | BaF3/TEL-AXL proliferation Inhibitory rate (%) [1, 6] [%] | inhibition at 0.001 µM [1, 7] [%] | inhibition at 0.01 µM [1, 8] [%] | inhibition at 0.1 µM [1, 9] [%] | inhibition at 0.001 µM ([1]; concentration of 1 nM, read-out: inhibited the proliferation of BaF3/TEL-AXL cells) [%]
34.8 | 52.1 | 75.9 | 68.4% | 67.6 | 96.6 | 95.8 | 34.3% | 24.1 |  | COCCOc1cc2ncnc(Oc3ccc(NC(=O)c4c5n(n(-c6ccccc6)c4=O)CCCC5)cc3C(F)(F)F)c2cc1OCCOC [DC621072, N-(4-((6,7-bis(2-methoxyethoxy)quinazolin-4-yl)oxy)-3-trifluoromethylphenyl)-2-oxo-1-phenyl-1,2,4,5,6,7-hexahydropyrazolo[1,5-a]pyridine-3-formamide] |  |  |  |  |  |  | 
29.9 | 72.5 | 100 | 80.5% | 66.8 | 100 | 99.4 | 53.5% | 40.5 | 8.7 ± 1 | COCCOc1cc2ncnc(Oc3ccc(NC(=O)c4c5n(n(-c6cc(F)ccc6F)c4=O)CCCC5)cc3F)c2cc1OCCOC [DC621024, 1-(2,5-difluorophenyl)-N-(4-((6,7-bis(2-methoxyethoxy)quinazolin-4-yl)oxy)-3-fluorophenyl)-2-oxo-1,2,4,5,6,7-hexahydropyrazolo[1,5-a]pyridine-3-formamide] | 75.0 | 80.5 | 81.3 | 79.8 | 81 | 85 | > 70
4.8 | 61 | 78 | 53.1% | 71.6 | 89.8 | 94.2 | 16.8% | 25.3 |  | COCCOc1cc2ncnc(Oc3ccc(NC(=O)c4c5n(n(-c6ccccc6F)c4=O)CCCC5)cc3C(F)(F)F)c2cc1OCCOC [DC621092, N-(4-((6,7-bis(2-methoxyethoxy)quinazolin-4-yl)oxy)-3-trifluoromethylphenyl)-1-(2-fluorophenyl)-2-oxo-1,2,4,5,6,7-hexahydropyrazolo[1,5-a]pyridine-3-formamide] |  |  |  |  |  |  | 
